Data on two molecules can be found in PMC10960024, “Diindoles produced from commensal microbiota metabolites function as endogenous CAR/Nr1i3 ligands” (Nature Communications, 2024).

The term EC50 denotes the concentration giving half of the maximal effect.

For one data set, the target named is T1, GST-hCAR-LBD (Homo sapiens, UniProt Q14994).
T1 construct: GST-hCAR-LBD (5 nM), terbium-labeled anti-GST antibody (5 nM); purchased Invitrogen A15141
T1 sequence (Q14994 109-352 limits assumed): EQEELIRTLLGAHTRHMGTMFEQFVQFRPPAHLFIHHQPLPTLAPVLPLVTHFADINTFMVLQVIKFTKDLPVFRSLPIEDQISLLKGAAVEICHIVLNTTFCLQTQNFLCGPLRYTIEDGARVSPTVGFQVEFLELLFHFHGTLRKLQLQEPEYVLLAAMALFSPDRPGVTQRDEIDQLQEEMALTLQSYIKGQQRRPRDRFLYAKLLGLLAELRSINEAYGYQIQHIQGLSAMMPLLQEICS
The data set is described as follows: LanthaScreen TR-FRET PGC1α coactivator recruitment assay. In kind it is biochemical. Here is the method: LanthaScreen^TM TR-FRET hCAR coactivator assays were performed according to manufacturer’s instructions (Invitrogen, A15141). Test compounds were incubated for 2 h at room temperature with GST-hCAR-LBD (5 nM), terbium-labeled anti-GST antibody (5 nM), and Fluorescein-PGC1α coactivator peptide (125 nM). Incubations were performed in four technical replicates. TR-FRET emissions were measured using a Tecan Infinite F200 Fluorescence Microplate Reader. Results were expressed as the ratio of fluorescence intensity at 520 nm (fluorescein emission excited by terbium emissions) and 495 nm (terbium emissions).
On the technique in general: TR-FRET usually uses a lanthanide donor and a delayed reading to cut background.

Another data set deals with T2, hCAR (Homo sapiens, UniProt Q14994).
T2 construct: expressed in transfected cells; host or cells: primary human hepatocytes infected with Ad/EYFP-hCAR
T2 sequence (Q14994 1-352): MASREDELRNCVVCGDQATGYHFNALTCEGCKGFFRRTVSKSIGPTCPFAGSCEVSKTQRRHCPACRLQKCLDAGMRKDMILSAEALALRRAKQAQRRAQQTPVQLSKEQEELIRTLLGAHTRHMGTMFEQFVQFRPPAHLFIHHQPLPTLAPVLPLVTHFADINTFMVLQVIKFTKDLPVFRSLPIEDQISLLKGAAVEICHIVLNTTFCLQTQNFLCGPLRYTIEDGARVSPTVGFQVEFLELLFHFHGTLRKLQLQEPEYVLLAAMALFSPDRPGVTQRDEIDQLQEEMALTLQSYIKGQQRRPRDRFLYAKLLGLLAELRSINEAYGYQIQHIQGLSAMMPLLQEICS
The data set is described as follows: hCAR nuclear translocation in primary human hepatocytes (Ad/EYFP-hCAR). In kind it is cell-based. The settings on record: PHHs from two individuals; 10 µM, 8 h. Here is the method:
24 h after seeding at 0.25 × 10^6 cells/well in 24-well biocoat plate, PHHs were infected with 2 µL of adenoviral enhanced yellow fluorescent protein-tagged hCAR (Ad/EYFP-hCAR) followed by treatment with 0.1% DMSO, phenobarbital (PB) (1 mM), DIM (10 µM) or DIE (10 µM) for 8 h. Cells were washed with phosphate-buffered saline and fixed for 30 min with 4% formaldehyde at room temperature and then stained with 4,6-diamidine-2-phenylindole dihydrochloride for 30 min after washing three times with phosphate-buffered saline. The subcellular localization of hCAR and nuclei were visualized using a Nikon Eclipse Ti-E inverted fluorescence microscope (Nikon, Edgewood, NY) in YFP/FITC and DAPI fluorescence channels. Compounds were added to the plate in triplicate and results analyzed as detailed below with z-factors calculated as previously described.

The target of a further data set is T3, GAL4-hCAR LBD (Homo sapiens, UniProt Q14994).
T3 construct: chimeric yeast GAL4 DBD fused to an hCAR LBD; expressed in transfected cells; host or cells: HEK293T (ATCC, CRL-3216)
T3 sequence (Q14994 109-352 limits assumed): T1 sequence (Q14994 109-352 limits assumed)
The data set is described as follows: HEK293T GAL4-hCAR dual transfection reporter assay with PK11195 (antagonist displacement). Type of data set: cell-based. As to conditions: read-out: HEK293 GAL4-hCAR EC50. The text has this: The GAL4-hCAR, UAS-Luc, pcDNA-GAL4, pGL4-Renilla-Luc and pGEM plasmids were generously provided by Dr. David Mangelsdorf. The GAL4-hCAR plasmid encodes a constitutively expressed chimeric yeast GAL4 DBD fused to an hCAR LBD. The UAS-Luc plasmid encodes a Firefly luciferase reporter under the control of a GAL4 response element. The pcDNA plasmid encodes a constitutively expressed GAL4 DBD and was used as a control vector to determine non-specific luminescence in all HEK293T cellular reporter assays. The pGL4-Renilla-Luc plasmid encodes a constitutively expressed Renilla luciferase reporter and was used as a transfection control in the HEK293T cellular reporter assays.
HEK293T cells (ATCC, CRL-3216) were seeded at a density of 40,000 cells per well in white flat-bottom 96-well microplates (Greiner CellStar, 655073) in Dulbecco’s Modified Eagle Medium (DMEM) (2.5 g/l glucose) supplemented with 10% stripped fetal bovine serum with 100 units/ml of penicillin and incubated for 24 h at 37 °C. Transfection was carried out using 0.3 µL/well of Lipofectamine 2000 (Thermo Fisher Scientific, 11668019). Cells were transfected with 10 ng/well of either pcDNA or GAL4-hCAR, 50 ng/well of UAS-Luc, 5 ng/well of pGL4-Renilla-Luc, and 85 ng/well of pGEM for a total of 150 ng/well of DNA. […] Cells were incubated for 16-hours to allow build-up of luciferase and then processed using the Dual-Glo Luciferase Assay System (Promega, E2940) as per the manufacturer’s instructions. Incubations were performed in four technical replicates.

The target of the next data set is T4, hCAR1+A (Homo sapiens, UniProt Q14994, INS274A).
T4 construct: expressed in transfected cells; host or cells: HepG2 (ATCC, HB-8065)
The data set is described as follows: HepG2 CYP2B6-2.2 kb reporter with hCAR1+A. In kind it is cell-based. As to conditions: 1, 5 and 10 µM, 24 h. The text has this:
Activities of both firefly and renilla luciferases were detected using a Dual-Luciferase Kit (Promega).

T4 sequence (Q14994 with tags, fused parts or gaps isoform Q14994-2 INS270A): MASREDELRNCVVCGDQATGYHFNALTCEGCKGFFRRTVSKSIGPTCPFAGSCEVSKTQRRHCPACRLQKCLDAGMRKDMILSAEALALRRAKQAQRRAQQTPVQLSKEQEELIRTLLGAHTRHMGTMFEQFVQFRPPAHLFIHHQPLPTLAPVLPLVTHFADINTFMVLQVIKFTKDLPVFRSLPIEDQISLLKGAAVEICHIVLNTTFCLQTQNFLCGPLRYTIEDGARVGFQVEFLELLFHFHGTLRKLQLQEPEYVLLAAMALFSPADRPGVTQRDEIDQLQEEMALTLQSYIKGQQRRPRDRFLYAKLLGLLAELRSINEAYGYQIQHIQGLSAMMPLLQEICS
T4 sequence (P19793 whole entry partner): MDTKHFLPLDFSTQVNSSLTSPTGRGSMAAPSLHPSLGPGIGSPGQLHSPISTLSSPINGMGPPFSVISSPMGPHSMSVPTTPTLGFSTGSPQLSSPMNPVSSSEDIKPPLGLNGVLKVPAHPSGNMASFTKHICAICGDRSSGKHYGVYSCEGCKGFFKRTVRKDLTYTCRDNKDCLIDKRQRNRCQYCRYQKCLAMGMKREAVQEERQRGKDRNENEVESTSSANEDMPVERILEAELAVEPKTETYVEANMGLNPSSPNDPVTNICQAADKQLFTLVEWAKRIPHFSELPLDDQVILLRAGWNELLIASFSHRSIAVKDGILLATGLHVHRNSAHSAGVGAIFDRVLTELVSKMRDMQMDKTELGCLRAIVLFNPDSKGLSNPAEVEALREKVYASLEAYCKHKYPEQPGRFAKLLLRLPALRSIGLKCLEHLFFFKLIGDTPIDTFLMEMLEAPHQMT

With `CC(c1c[nH]c2ccccc12)c1c[nH]c2ccccc12` [DIE, 3,3’-diindolylethane], the PGC1α cofactor recruitment entry on GST-hCAR-LBD is given as “does not”. The hCAR nuclear relocation entry on hCAR is listed as “efficiently promote hCAR nuclear relocation”. Further, the EC50 on GAL4-hCAR LBD was 720 nM. Moreover, the “hCAR1+A activity (CYP2B6 reporter)” value at hCAR1+A is on record as “significantly boost hCAR1+A activity”.

Consider `c1ccc2c(Cc3c[nH]c4ccccc34)c[nH]c2c1` [DIM, diindolylmethane], for which the hCAR nuclear relocation result on hCAR is listed as “efficiently promote hCAR nuclear relocation”. In addition, the EC50 at GAL4-hCAR LBD came to 1740 nM. Further, the “hCAR1+A activity (CYP2B6 reporter)” value at hCAR1+A is “significantly boost hCAR1+A activity”.
